Source: ChEMBL document CHEMBL1150587, “Evaluation of the potential cancer chemotherapeutic efficacy of natural product isolates employing in vivo hollow fiber tests” (J Nat Prod, 2002)
The source made the active and inactive calls. The rule behind the calls is not given here.

Tests used:
Mus musculus [1] = test: Toxicity in tumor cell implanted NCr nu/nu mouse assessed as body weight change at 7.13 umol/kg, ip administered from day 3 to 6 after implantation measured on day 7; format: organism-based; conditions: in vivo
P388 [2] = test: Cytotoxicity against mouse P388 cells after 72 hrs by SRB assay; format: functional, cell-based; conditions: P388, 72 h
SW626 [3] = test: Growth inhibition of human SW626 cells implanted intraperitoneally to NCr nu/nu mouse at 7.13 to 28.5 umol/kg, ip administered from day 3 to 6 after implantation measured on day 7 by MTT-based hollow-fiber test; format: functional
Lu1 [4] = test: Growth inhibition of human Lu1 cells implanted intraperitoneally to NCr nu/nu mouse at 7.13 to 28.5 umol/kg, ip administered from day 3 to 6 after implantation measured on day 7 by MTT-based hollow-fiber test; format: functional
Col2 = test: Cytotoxicity against human Col2 cells after 72 hrs by SRB assay; format: functional, cell-based; conditions: Col2, 72 h
P388 [5] = test: Growth inhibition of mouse P388 cells implanted intraperitoneally to NCr nu/nu mouse at 7.13 to 28.5 umol/kg, ip administered from day 3 to 6 after implantation measured on day 7 by MTT-based hollow-fiber test; format: functional
MCF7 [6] = test: Growth inhibition of human MCF7 cells implanted subcutaneously to NCr nu/nu mouse at 7.13 to 28.5 umol/kg, ip administered from day 3 to 6 after implantation measured on day 7 by MTT-based hollow-fiber test; format: functional
LNCaP [7] = test: Cytotoxicity against human LNCAP cells after 72 hrs by SRB assay; format: functional, cell-based
[8] = Cytotoxicity against human KBV1 cells after 72 hrs by SRB assay; format: functional, cell-based; conditions: KB-V1, 72 h
Mus musculus [9] = test: Toxicity in NCr nu/nu mouse subcutaneously implanted with human KB cells assessed as mortality at 28.5 umol/kg, ip administered on day 10, 13, 16, 20 of implantation; format: organism-based; conditions: in vivo
Mus musculus [10] = test: Toxicity in NCr nu/nu mouse subcutaneously implanted with human KB cells assessed as change in body weight at 14.3 umol/kg, ip administered on day 10, 13, 16, 20 of implantation; format: organism-based; conditions: in vivo
LNCaP [11] = test: Growth inhibition of ip dosed intraperitoneally implanted human LNCAP cells to NCr nu/nu mouse administered from day 3 to 6 after implantation measured on day 7 by MTT-based hollow-fiber test; format: functional, organism-based
P388 [12] = test: Growth inhibition of mouse P388 cells implanted subcutaneously to NCr nu/nu mouse at 7.13 to 28.5 umol/kg, ip administered from day 3 to 6 after implantation measured on day 7 by MTT-based hollow-fiber test; format: functional
Mus musculus [13] = test: Toxicity in NCr nu/nu mouse subcutaneously implanted with human KB cells assessed as mortality at 7.13 umol/kg, ip administered on day 10, 13, 16, 20 of implantation; format: organism-based; conditions: in vivo
SW626 [14] = test: Cytotoxicity against human SW626 cells after 72 hrs by SRB assay; format: functional, cell-based; conditions: SW626, 72 h
Lu1 [15] = test: Growth inhibition of ip dosed intraperitoneally implanted human Lu1 cells to NCr nu/nu mouse administered from day 3 to 6 after implantation measured on day 7 by MTT-based hollow-fiber test; format: functional, organism-based
SK-MEL-2 [16] = test: Growth inhibition of human SK-MEL-2 cells implanted subcutaneously to NCr nu/nu mouse at 7.13 to 28.5 umol/kg, ip administered from day 3 to 6 after implantation measured on day 7 by MTT-based hollow-fiber test; format: functional
KB [17] = test: Growth inhibition of human KB cells implanted subcutaneously to NCr nu/nu mouse assessed as tumor size at 7.13 to 72.6 umol/kg, ip administered on day 10, 13, 16, 20 of implantation; format: functional, organism-based
SW626 [18] = test: Growth inhibition of human SW626 cells implanted subcutaneously to NCr nu/nu mouse at 7.13 to 28.5 umol/kg, ip administered from day 3 to 6 after implantation measured on day 7 by MTT-based hollow-fiber test; format: functional
Mus musculus [19] = test: Toxicity in tumor cell implanted NCr nu/nu mouse assessed as body weight change at 14.3 umol/kg, ip administered from day 3 to 6 after implantation measured on day 7; format: organism-based; conditions: in vivo
Mus musculus [20] = test: Toxicity in tumor cell implanted NCr nu/nu mouse assessed as body weight change at 28.5 umol/kg, ip administered from day 3 to 6 after implantation measured on day 7; format: organism-based; conditions: in vivo
Mus musculus [21] = test: Toxicity in NCr nu/nu mouse subcutaneously implanted with human KB cells assessed as mortality at 14.3 umol/kg, ip administered on day 10, 13, 16, 20 of implantation; format: organism-based; conditions: in vivo
Mus musculus [22] = test: Toxicity in NCr nu/nu mouse subcutaneously implanted with human KB cells assessed as change in body weight at 7.13 umol/kg, ip administered on day 10, 13, 16, 20 of implantation; format: organism-based; conditions: in vivo
KB [23] = test: Growth inhibition of human KB cells implanted subcutaneously to NCr nu/nu mouse at 7.13 to 28.5 umol/kg, ip administered from day 3 to 6 after implantation measured on day 7 by MTT-based hollow-fiber test; format: functional
SK-MEL-2 [24] = test: Growth inhibition of human SK-MEL-2 cells implanted intraperitoneally to NCr nu/nu mouse at 7.13 to 28.5 umol/kg, ip administered from day 3 to 6 after implantation measured on day 7 by MTT-based hollow-fiber test; format: functional
MCF7 [25] = test: Growth inhibition of human MCF7 cells implanted intraperitoneally to NCr nu/nu mouse at 7.13 to 28.5 umol/kg, ip administered from day 3 to 6 after implantation measured on day 7 by MTT-based hollow-fiber test; format: functional
KB [26] = test: Cytotoxicity against human KB cells after 72 hrs by SRB assay; format: functional, cell-based
Mus musculus [27] = test: Toxicity in tumor-implanted NCr nu/nu mouse at 57.5 umol/kg, ip administered from day 3 to 6 after implantation measured on day 7 by hollow-fiber test; format: organism-based; conditions: in vivo
LNCaP [28] = test: Growth inhibition of human LNCAP cells implanted intraperitoneally to NCr nu/nu mouse at 7.13 to 28.5 umol/kg, ip administered from day 3 to 6 after implantation measured on day 7 by MTT-based hollow-fiber test; format: functional
LNCaP [29] = test: Growth inhibition of human LNCAP cells implanted subcutaneously to NCr nu/nu mouse at 7.13 to 28.5 umol/kg, ip administered from day 3 to 6 after implantation measured on day 7 by MTT-based hollow-fiber test; format: functional
Lu1 [30] = test: Cytotoxicity against human Lu1 cells after 72 hrs by SRB assay; format: functional, cell-based; conditions: Lu1, 72 h
Mus musculus [31] = test: Toxicity in tumor-implanted NCr nu/nu mouse at 144 umol/kg, ip administered from day 3 to 6 after implantation measured on day 7 by hollow-fiber test; format: organism-based; conditions: in vivo
Lu1 [32] = test: Growth inhibition of human Lu1 cells implanted subcutaneously to NCr nu/nu mouse at 7.13 to 28.5 umol/kg, ip administered from day 3 to 6 after implantation measured on day 7 by MTT-based hollow-fiber test; format: functional
[33] = Cytotoxicity against human BC1 cells after 72 hrs by SRB assay; conditions: BC1, 72 h
Mus musculus [34] = test: Toxicity in NCr nu/nu mouse subcutaneously implanted with human KB cells assessed as change in body weight at 28.5 umol/kg, ip administered on day 10, 13, 16, 20 of implantation; format: organism-based; conditions: in vivo
MCF7 [35] = test: Cytotoxicity against human MCF7 cells after 72 hrs by SRB assay; conditions: MCF7, 72 h
SK-MEL-2 [36] = test: Cytotoxicity against human SK-MEL-2 cells after 72 hrs by SRB assay; format: functional, cell-based; conditions: SK-MEL-2, 72 h
KB [37] = test: Growth inhibition of human KB cells implanted intraperitoneally to NCr nu/nu mouse at 7.13 to 28.5 umol/kg, ip administered from day 3 to 6 after implantation measured on day 7 by MTT-based hollow-fiber test; format: functional

In the case of `C[C@@H]1CC[C@@]2(OC1)O[C@H]1C[C@H]3[C@@H]4CC=C5C[C@@H](O[C@@H]6O[C@H](CO)[C@@H](O[C@@H]7O[C@@H](C)[C@H](O)[C@@H](O)[C@H]7O)[C@H](O)[C@H]6O[C@@H]6O[C@@H](C)[C@H](O)[C@@H](O)[C@H]6O)CC[C@]5(C)[C@H]4CC[C@]3(C)[C@H]1[C@@H]2C` [DIOSCIN], the Activity (Mus musculus [1]) is reported as 0.8 g, the IC50 (P388 [2]) is reported as 21.9 µM and the “inhibition (INH)” value (SW626 [3]) is reported as 4.1%. For the same molecule, the “inhibition (INH)” value (Lu1 [4]) was 24.6%, the IC50 (Col2) was 2.8 µM and the “inhibition (INH)” value (P388 [5]) was 0%. For the same molecule, the “inhibition (INH)” value (MCF7 [6]) was 7.3%, the IC50 (LNCaP [7]) was 1.7 µM and the IC50 [8] was over 23 µM. For the same molecule, the Activity (Mus musculus [9]) was “Non-toxic”, the Activity (Mus musculus [10]) was 8.4% and the Activity (LNCaP [11]) was “Dose-dependent effect”. For the same molecule, the “inhibition (INH)” value (P388 [12]) was 0%, the Activity (Mus musculus [13]) was “Non-toxic” and the IC50 (SW626 [14]) was 3.1 µM. The Activity (Lu1 [15]) was “Dose-dependent effect”, the “inhibition (INH)” value (SK-MEL-2 [16]) was 0% and the Activity (KB [17]) was “inactive”. The “inhibition (INH)” value (SW626 [18]) was 8.7%, the Activity (Mus musculus [19]) was 0.45 g and the Activity (Mus musculus [20]) was -0.65 g. For the same molecule, the Activity (Mus musculus [21]) was “Non-toxic”, the Activity (Mus musculus [22]) was 7.1% and the “inhibition (INH)” value (KB [23]) was 3.6%. The “inhibition (INH)” value (SK-MEL-2 [24]) was 2.3%, the “inhibition (INH)” value (MCF7 [25]) was 0% and the IC50 (KB [26]) was 20.7 µM. The Activity (Mus musculus [27]) was “Toxic”, the “inhibition (INH)” value (LNCaP [28]) was 36.9% and the “inhibition (INH)” value (LNCaP [29]) was 35.9%. For the same molecule, the IC50 (Lu1 [30]) was 1.2 µM, the Activity (Mus musculus [31]) was “Toxic” and the “inhibition (INH)” value (Lu1 [32]) was 0%. It also gave an IC50 [33] of 3.8 µM, an Activity (Mus musculus [34]) of 8.6% and an IC50 (MCF7 [35]) of 22.4 µM. For the same molecule, the IC50 (SK-MEL-2 [36]) was 1.8 µM and the “inhibition (INH)” value (KB [37]) was 79%.
